Measurements taken from patent US11590116B2 (THERAVANCE BIOPHARMA R&D IP, LLC, priority 2019, dated 2023).

What was measured:
[1] = target: T1, recombinant human ALK5 (TGF-βR1) protein (Homo sapiens, UniProt P36897); assay: Biochemical ALK5 (TGF-βR1) assay to measure pKi (LANCE Ultra ULight kinase assay); settings: apparent pKi from pIC50 by Cheng-Prusoff, read-out: ALK5 pKi (converted)
T1 construct: purchased Life Technologies PR9075A
T1 sequence (P36897 34-503): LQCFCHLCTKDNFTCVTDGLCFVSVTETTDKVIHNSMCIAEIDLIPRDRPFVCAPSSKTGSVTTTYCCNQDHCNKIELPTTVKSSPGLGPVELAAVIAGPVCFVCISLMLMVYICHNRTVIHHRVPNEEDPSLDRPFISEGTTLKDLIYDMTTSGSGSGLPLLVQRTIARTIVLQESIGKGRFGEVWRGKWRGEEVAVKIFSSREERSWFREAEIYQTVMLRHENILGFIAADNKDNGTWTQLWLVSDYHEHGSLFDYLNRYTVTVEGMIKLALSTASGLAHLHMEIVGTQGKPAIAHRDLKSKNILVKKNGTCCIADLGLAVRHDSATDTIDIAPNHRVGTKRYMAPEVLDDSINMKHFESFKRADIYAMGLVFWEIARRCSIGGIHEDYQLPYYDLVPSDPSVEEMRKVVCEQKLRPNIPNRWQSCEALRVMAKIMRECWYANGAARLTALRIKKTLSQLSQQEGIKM
How it was run: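 Compounds (10 μM to 25 pM) were preincubated 60 min at room temperature with enzyme, then reactions were started with ATP (125 μM stock, 5× final) and run 60 min at 37 °C. EDTA-containing Eu-anti-phospho-Topo IIα (Thr1342) antibody stopped the reaction; TR-FRET read at 665 nm. pIC50 from 4-parameter fit, converted to pKi via Cheng-Prusoff.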

[2] = system: TGF-β-stimulated SMAD3 phosphorylation in BEAS-2B cells; assay: Cellular ALK5 potency assay, inhibition of TGF-β stimulated pSMAD3 formation in BEAS-2B cells; format: cell-based; settings: Homo sapiens; inhibition of TGF-β stimulated pSMAD3 formation, BEAS-2B cells; read-out: BEAS2B pIC50 (converted)
How it was run: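 pSMAD3 was quantified by AlphaLISA in BEAS-2B lysates after 10 ng/mL TGF-β (final) for 30 min. Before stimulation, cells received compound for 1 h at 37° C in supplemented HBSS. Values are pIC50, relative to TGF-β-stimulated cells without compound.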

Compound | Ki [1] | IC50 [2]
Cc1cccc(-c2[nH]cnc2-c2ccc3ncc(-c4cc(C(=O)OC5CCNCC5)cs4)cc3c2)n1 [Compound 1139, 4-piperidyl 5-[6-[5-(6-methyl-2-pyridyl)-1H-imidazol-4-yl]-3-quinolyl]thiophene-3-carboxylate] | < 0.0316 nM | 25.1 to 158 nM
Cc1cccc(-c2n[nH]cc2-c2ccc3nccc(C4COC5(CCNC5)CN4)c3n2)n1 (centres unmarked) [Compound 862, 8-[6-[3-(6-methyl-2-pyridyl)-1H-pyrazol-4-yl]-1,5-naphthyridin-4-yl]-6-oxa-2,9-diazaspiro[4.5]decane] | 3.98 to 31.6 nM | 200 to 1260 nM
CNCCn1cc(-c2cnc3ccc(-c4c[nH]nc4-c4cccc(C(F)(F)F)n4)nc3c2)cn1 [Compound 237, N-methyl-2-(4-(6-(3-(6-(trifluoromethyl)pyridin-2-yl)-1H-pyrazol-4-yl)-1,5-naphthyridin-3-yl)-1H-pyrazol-1-yl)ethan-1-amine] | < 0.0316 nM | 25.1 to 158 nM
Cc1cccc(-c2[nH]cnc2-c2ccc3ncc(NCCC4CCNCC4)cc3c2)n1 [Compound 496, 6-[5-(6-methyl-2-pyridyl)-1H-imidazol-4-yl]-N-[2-(4-piperidyl)ethyl]quinolin-3-amine] | 0.0398 to 0.316 nM | 25.1 to 158 nM
Cc1cccc(-c2[nH]cnc2-c2ccc3ncc(C(=O)OCCCN4C[C@@H](C)N[C@@H](C)C4)cc3c2)n1 [Compound 898, 3-((3S,5R)-3,5-dimethylpiperazin-1-yl)propyl 6-(5-(6-methylpyridin-2-yl)-1H-imidazol-4-yl)quinoline-3-carboxylate] | 0.0398 to 0.316 nM | 25.1 to 158 nM
Cc1cccc(-c2n[nH]cc2-c2ccc3nccc(CNCCCN4CCN(C(C)C)CC4)c3n2)n1 [Compound 819, 3-(4-isopropylpiperazin-1-yl)-N-[[6-[3-(6-methyl-2-pyridyl)-1H-pyrazol-4-yl]-1,5-naphthyridin-4-yl]methyl]propan-1-amine] | 0.0398 to 0.316 nM | 25.1 to 158 nM
Cc1cccc(-c2[nH]cnc2-c2ccc3ncc(C(=O)OCCN4CCC5(CC4)CNC5)cc3c2)n1 [Compound 892, 2-(2,7-diazaspiro[3.5]nonan-7-yl)ethyl 6-(5-(6-methylpyridin-2-yl)-1H-imidazol-4-yl)quinoline-3-carboxylate] | 0.0398 to 0.316 nM | 200 to 1260 nM
Cc1nc(-c2nc3ccccn3c2-c2ccc3ncc(N4CCNCC4)cc3c2)ccc1F [Compound 457, 6-[2-(5-fluoro-6-methyl-2-pyridyl)imidazo[1,2-a]pyridin-3-yl]-3-piperazin-1-yl-quinoline] | 0.0398 to 0.316 nM | 25.1 to 158 nM
Cc1cccc(-c2n[nH]cc2-c2ccc3ncc(N4CC5CNC5C4)cc3c2)n1 (centres unmarked) [Compound 535, 3-(3,6-diazabicyclo[3.2.0]heptan-3-yl)-6-[3-(6-methyl-2-pyridyl)-1H-pyrazol-4-yl]quinoline] | 0.0398 to 0.316 nM | 25.1 to 158 nM
COC(=O)c1ccnc2ccc(-c3cn[nH]c3-c3cccc(C)n3)cc12 [Compound 1061, methyl 6-[5-(6-methyl-2-pyridyl)-1H-pyrazol-4-yl]quinoline-4-carboxylate] | 0.0398 to 0.316 nM | 25.1 to 158 nM
Cc1cccc(-c2n[nH]cc2-c2ccc3ncc(-c4cnc5n4CCNC5)cc3n2)n1 [Compound 548, 2-[3-(6-methyl-2-pyridyl)-1H-pyrazol-4-yl]-7-(5,6,7,8-tetrahydroimidazo[1,2-a]pyrazin-3-yl)-1,5-naphthyridine] | 0.0398 to 0.316 nM | 25.1 to 158 nM
Cc1cccc(-c2n[nH]cc2-c2ccc3ncc(NCC4CCCCN4)cc3n2)n1 (centres unmarked) [Compound 375, 6-[3-(6-methyl-2-pyridyl)-1H-pyrazol-4-yl]-N-(2-piperidylmethyl)-1,5-naphthyridin-3-amine] | 0.0398 to 0.316 nM | 25.1 to 158 nM
Cc1cccc(-c2n[nH]cc2-c2ccc3ncc(-c4cn5c(n4)CNCC5)cc3n2)n1 [Compound 75, 2-(3-(6-Methylpyridin-2-yl)-1H-pyrazol-4-yl)-7-(5,6,7,8-tetrahydroimidazo[1,2-a]pyrazin-2-yl)-1,5-naphthyridine] | < 0.0316 nM | 25.1 to 158 nM
Cc1cccc(-c2n[nH]cc2-c2ccc3ncc(NC4CCCNC4)cc3n2)n1 (centres unmarked) [Compound 543, 6-[3-(6-methyl-2-pyridyl)-1H-pyrazol-4-yl]-N-(3-piperidyl)-1,5-naphthyridin-3-amine] | 0.0398 to 0.316 nM | 25.1 to 158 nM
Cc1cccc(-c2[nH]cnc2-c2ccc3ncc(C4=CCC(NCC5CCOC5=O)CC4)cc3c2)n1 (centres unmarked) [Compound 456, 3-[[[4-[6-[5-(6-methyl-2-pyridyl)-1H-imidazol-4-yl]-3-quinolyl]cyclohex-3-en-1-yl]amino]methyl]tetrahydrofuran-2-one] | < 0.0316 nM | < 20 nM
Cc1cccc(-c2n[nH]cc2-c2ccc3ncc(N4CCC(O)C4)cc3n2)n1 (racemic) [Compound 312, rac-(3R)-1-[6-[3-(6-methyl-2-pyridyl)-1H-pyrazol-4-yl]-1,5-naphthyridin-3-yl]pyrrolidin-3-ol] | < 0.0316 nM | < 20 nM
Cc1cccc(-c2[nH]ncc2-c2ccc3ncc(C(=O)O[C@H]4C[C@H](N)C4)cc3c2)n1 [Compound 1181, (3-aminocyclobutyl) 6-[5-(6-methyl-2-pyridyl)-1H-pyrazol-4-yl]quinoline-3-carboxylate] | 0.0398 to 0.316 nM | < 20 nM
Cc1cccc(-c2[nH]cnc2-c2ccc3ncc(C4=CCC(NC(=O)CSC5CCOC5=O)CC4)cc3c2)n1 (centres unmarked) [Compound 98, N-(4-(6-(5-(6-methylpyridin-2-yl)-1H-imidazol-4-yl)quinolin-3-yl)cyclohex-3-en-1-yl)-2-((2-oxotetrahydrofuran-3-yl)thio)acetamide] | 0.0398 to 0.316 nM | 25.1 to 158 nM
Cc1cccc(-c2n[nH]cc2-c2ccc3ncc(-c4cnn(CC(=O)O)c4)cc3n2)n1 [Compound 240, 2-[4-[6-[3-(6-methyl-2-pyridyl)-1H-pyrazol-4-yl]-1,5-naphthyridin-3-yl]pyrazol-1-yl]acetic acid] | < 0.0316 nM | 25.1 to 158 nM
Cc1cccc(-c2[nH]cnc2-c2ccc3ncc(-c4ccccn4)cc3c2)n1 [Compound 367, 6-[5-(6-methyl-2-pyridyl)-1H-imidazol-4-yl]-3-(2-pyridyl)quinoline] | 0.0398 to 0.316 nM | 25.1 to 158 nM
Cc1cccc(-c2n[nH]cc2-c2ccc3ncc(-c4ncn5c4CNCC5)cc3n2)n1 [Compound 118, 2-[3-(6-methyl-2-pyridyl)-1H-pyrazol-4-yl]-7-(5,6,7,8-tetrahydroimidazo[1,5-a]pyrazin-1-yl)-1,5-naphthyridine] | 0.0398 to 0.316 nM | 25.1 to 158 nM
Cc1cccc(-c2[nH]cnc2-c2ccc3ncc(NCCN4CC5CNC5C4)cc3c2)n1 (centres unmarked) [Compound 129, N-[2-(3,6-diazabicyclo[3.2.0]heptan-3-yl)ethyl]-6-[5-(6-methyl-2-pyridyl)-1H-imidazol-4-yl]quinolin-3-amine] | 0.0398 to 0.316 nM | 200 to 1260 nM
COC(=O)CC1CNCCN1CCNc1cnc2ccc(-c3nc[nH]c3-c3cccc(C)n3)cc2c1 (centres unmarked) [Compound 659, methyl 2-[1-[2-[[6-[5-(6-methyl-2-pyridyl)-1H-imidazol-4-yl]-3-quinolyl]amino]ethyl]piperazin-2-yl]acetate] | 0.0398 to 0.316 nM | 200 to 1260 nM
Cc1cccc(-c2nc3n(c2-c2ccc4ncc(-c5cn[nH]c5)cc4c2)CCNC3)n1 [Compound 635, 6-(2-(6-methylpyridin-2-yl)-5,6,7,8-tetrahydroimidazo[1,2-a]pyrazin-3-yl)-3-(1H-pyrazol-4-yl)quinoline] | 0.0398 to 0.316 nM | 200 to 1260 nM
Cc1cccc(-c2[nH]cnc2-c2ccc3ncc(NCCN4CC5(CCCNC5)C4)cc3c2)n1 [Compound 733, N-[2-(2,8-diazaspiro[3.5]nonan-2-yl)ethyl]-6-[5-(6-methyl-2-pyridyl)-1H-imidazol-4-yl]quinolin-3-amine] | 0.0398 to 0.316 nM | 200 to 1260 nM
Cc1cccc(-c2[nH]cnc2-c2ccc3ncc(-c4csc(C(=O)OCCN5CCC[C@@H](N)C5)c4)cc3c2)n1 [Compound 1178, 2-[(3R)-3-amino-1-piperidyl]ethyl 4-[6-[5-(6-methyl-2-pyridyl)-1H-imidazol-4-yl]-3-quinolyl]thiophene-2-carboxylate] | 0.0398 to 0.316 nM | 25.1 to 158 nM
Cc1cccc(-c2n[nH]cc2-c2ccc3ncc(-c4c(C)n[nH]c4C)cc3n2)n1 [Compound 366, 7-(3,5-dimethyl-1H-pyrazol-4-yl)-2-[3-(6-methyl-2-pyridyl)-1H-pyrazol-4-yl]-1,5-naphthyridine] | 0.0398 to 0.316 nM | 200 to 1260 nM
Cc1cccc(-c2[nH]cnc2-c2ccc3ncc(-c4nc(C(=O)O[C@@H]5CCN(C)C5)cs4)cc3c2)n1 [Compound 744, [(3R)-1-methylpyrrolidin-3-yl] 2-[6-[5-(6-methyl-2-pyridyl)-1H-imidazol-4-yl]-3-quinolyl]thiazole-4-carboxylate] | 0.0398 to 0.316 nM | 25.1 to 158 nM
